Some test systems named below: HOP-92 NSCLC; 786-0 renal; RXF 393 renal; LOX IMVI melanoma; SK-MEL-2 melanoma; NCI/ADR-RES ovarian; NCI-H23 lung; MCF7 breast; COLO 205 colon; SK-MEL-5 melanoma; HOP-62 NSCLC; K-562 leukemia; SF-539 CNS; HL-60(TB) leukemia; UACC-257 melanoma; SN12C renal; M14 melanoma; SW-620 colon; HS 578T breast; DU-145 prostate.
Holding throughout (assay): NCI anticancer screen, dose series, 48 h

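Test compounds were applied to cells in 96-well plates for 48 hours at 5 doses. TGI: total growth inhibition.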

Turning to `COC(=O)c1ccc(N=NN(C)COc2ccc(C#N)cc2)cc1`, the TGI in the assay on HOP-92 NSCLC, in the assay with 786-0 renal, in the assay on RXF 393 renal, with LOX IMVI melanoma, in the assay on SK-MEL-2 melanoma and with NCI/ADR-RES ovarian was above 100 µM throughout. In addition, the TGI in the assay on NCI-H23 lung, in the assay on MCF7 breast, in the assay on COLO 205 colon, with SK-MEL-5 melanoma, in the assay with HOP-62 NSCLC and with K-562 leukemia was above 100 µM throughout. Besides, the TGI in the assay on SF-539 CNS was above 100 µM; in the assay with HL-60(TB) leukemia, 50.4 µM; in the assay on UACC-257 melanoma it was above 100 µM; with SN12C renal it was above 100 µM; in the assay on M14 melanoma it was above 100 µM; in the assay with SW-620 colon it was above 100 µM. The TGI in the assay on HS 578T breast and in the assay with DU-145 prostate was above 100 µM throughout.
Turning to `O=c1c2cc([N+](=O)[O-])ccc2n(Cc2ccccc2)n1Cc1ccccc1`, the TGI in the assay on HOP-92 NSCLC is above 31.6 µM; in the assay on 786-0 renal, above 31.6 µM; with RXF 393 renal it was above 31.6 µM; in the assay on LOX IMVI melanoma it was above 31.6 µM; in the assay on SK-MEL-2 melanoma, 20.2 µM; in the assay with NCI/ADR-RES ovarian it was 20.3 µM. For the same compound, the TGI in the assay with NCI-H23 lung was above 31.6 µM; in the assay with MCF7 breast it was 28.6 µM; with COLO 205 colon, above 31.6 µM; in the assay on SK-MEL-5 melanoma it was 13.3 µM; with HOP-62 NSCLC, above 31.6 µM; with K-562 leukemia, above 31.6 µM. Further, the TGI in the assay on SF-539 CNS was above 31.6 µM; in the assay on HL-60(TB) leukemia, 22.7 µM; with UACC-257 melanoma, 19.8 µM; with SN12C renal it was above 31.6 µM; with M14 melanoma, 20.7 µM; with SW-620 colon, above 31.6 µM. Moreover, the TGI in the assay on HS 578T breast and in the assay on DU-145 prostate was above 31.6 µM throughout.
Turning to `CC(=O)CCNc1ccc(-c2cc(-c3ccc(N(C)C)cc3)nc3ccc4ccccc4c23)cc1`, the TGI with HOP-92 NSCLC, with 786-0 renal, in the assay with RXF 393 renal, with LOX IMVI melanoma, with SK-MEL-2 melanoma and in the assay on NCI/ADR-RES ovarian was above 100 µM each time. Moreover, the TGI in the assay with NCI-H23 lung is above 100 µM; in the assay on MCF7 breast, above 100 µM; in the assay on COLO 205 colon, above 88.3 µM; with SK-MEL-5 melanoma it was above 100 µM; with HOP-62 NSCLC it was above 100 µM; in the assay with K-562 leukemia it was above 100 µM. For the same compound, the TGI is above 100 µM in the assay on SF-539 CNS; 84.4 µM with HL-60(TB) leukemia; above 100 µM with UACC-257 melanoma; above 100 µM with SN12C renal; above 88.8 µM in the assay on M14 melanoma; above 100 µM in the assay with SW-620 colon. Moreover, the TGI in the assay with HS 578T breast and with DU-145 prostate was above 100 µM throughout.
For `CCCCCCCC/C=C\CCCCCCC(F)C(=O)O` (stereo not given), the TGI in the assay with HOP-92 NSCLC, with 786-0 renal, in the assay on RXF 393 renal, in the assay on LOX IMVI melanoma, with SK-MEL-2 melanoma and in the assay with NCI/ADR-RES ovarian was above 12.5 µM in each case. In addition, the TGI with NCI-H23 lung, in the assay on MCF7 breast, in the assay with COLO 205 colon, in the assay with SK-MEL-5 melanoma, in the assay on HOP-62 NSCLC and in the assay on K-562 leukemia was above 12.5 µM each time. The TGI in the assay on SF-539 CNS, with HL-60(TB) leukemia, in the assay with UACC-257 melanoma, in the assay on SN12C renal, in the assay with M14 melanoma and with SW-620 colon was above 12.5 µM throughout. The TGI in the assay on HS 578T breast and in the assay with DU-145 prostate was above 12.5 µM each time.
`CC(C)[Si](OC1=C(C(=O)Nc2ccccc2Cl)CCCCC1)(C(C)C)C(C)C`: the TGI with HOP-92 NSCLC, in the assay on 786-0 renal, with RXF 393 renal, in the assay on LOX IMVI melanoma, in the assay on SK-MEL-2 melanoma and in the assay on NCI/ADR-RES ovarian was above 100 µM in each case. Further, the TGI in the assay on NCI-H23 lung, in the assay on MCF7 breast, in the assay with COLO 205 colon, in the assay on SK-MEL-5 melanoma, in the assay with HOP-62 NSCLC and with K-562 leukemia was above 100 µM in each case. Moreover, the TGI was above 100 µM in the assay with SF-539 CNS; 13.4 µM with HL-60(TB) leukemia; above 100 µM in the assay on UACC-257 melanoma; above 100 µM in the assay with SN12C renal; above 100 µM in the assay on M14 melanoma; above 100 µM in the assay on SW-620 colon. Also, the TGI in the assay on HS 578T breast and in the assay on DU-145 prostate was above 100 µM in each case.
Turning to `Nc1cc2c3c(cccc3c1)C(=O)N(c1ccc(OCCN3CCCCC3)cc1)C2=O`, the TGI in the assay with HOP-92 NSCLC came to 34.2 µM; in the assay with 786-0 renal, 43.3 µM; in the assay with RXF 393 renal, 35.7 µM; with LOX IMVI melanoma, 35.4 µM; in the assay on SK-MEL-2 melanoma, 31.6 µM; with NCI/ADR-RES ovarian, 40.9 µM. In addition, the TGI in the assay on NCI-H23 lung was 30.2 µM; in the assay on MCF7 breast it was 36.3 µM; in the assay with COLO 205 colon, 35.7 µM; with SK-MEL-5 melanoma, 35.2 µM; with HOP-62 NSCLC, 31.8 µM; in the assay with K-562 leukemia, 29.8 µM. Further, the TGI in the assay with SF-539 CNS is 27.9 µM; in the assay with HL-60(TB) leukemia, 26.5 µM; in the assay with UACC-257 melanoma, 31.6 µM; in the assay on SN12C renal, above 54.3 µM; with M14 melanoma it was 32.3 µM; in the assay on SW-620 colon it was 48.5 µM. For the same compound, the TGI came to 63.4 µM with HS 578T breast and 33.5 µM with DU-145 prostate.
Take `CC1(C)C=C(/C=N/Nc2ccc([N+](=O)[O-])cc2)C(C#N)=C(O)C1(C#N)C#N`: the TGI in the assay with HOP-92 NSCLC, in the assay with 786-0 renal, in the assay on RXF 393 renal, in the assay with LOX IMVI melanoma, in the assay on SK-MEL-2 melanoma and with NCI/ADR-RES ovarian was above 100 µM throughout. Moreover, the TGI in the assay with NCI-H23 lung, in the assay with MCF7 breast, with COLO 205 colon, in the assay with SK-MEL-5 melanoma, with HOP-62 NSCLC and with K-562 leukemia was above 100 µM in each case. The TGI in the assay on SF-539 CNS, in the assay with HL-60(TB) leukemia, in the assay with UACC-257 melanoma, in the assay with SN12C renal, with M14 melanoma and in the assay on SW-620 colon was above 100 µM throughout. In addition, the TGI with HS 578T breast and in the assay with DU-145 prostate was above 100 µM in each case.
For `COC(=O)C1Cc2cccc(C)c2C1` (stereo not given), the TGI with HOP-92 NSCLC, with 786-0 renal, with RXF 393 renal, in the assay on LOX IMVI melanoma, in the assay with SK-MEL-2 melanoma and in the assay with NCI/ADR-RES ovarian was above 100 µM throughout. Also, the TGI with NCI-H23 lung was above 100 µM; in the assay with MCF7 breast, 71.6 µM; in the assay with COLO 205 colon it was above 100 µM; with SK-MEL-5 melanoma, above 100 µM; in the assay with HOP-62 NSCLC, above 100 µM; with K-562 leukemia, above 100 µM. The TGI in the assay on SF-539 CNS, with HL-60(TB) leukemia, in the assay on UACC-257 melanoma, in the assay with SN12C renal, with M14 melanoma and in the assay with SW-620 colon was above 100 µM each time. Also, the TGI with HS 578T breast and in the assay with DU-145 prostate was above 100 µM throughout.
As to `CCCCOC(=O)C1CN2C=CC=NC2=NC1(C(F)(F)F)C(F)(F)F` (stereo not given), the TGI in the assay with HOP-92 NSCLC, with 786-0 renal, in the assay with RXF 393 renal, in the assay with LOX IMVI melanoma, in the assay on SK-MEL-2 melanoma and in the assay with NCI/ADR-RES ovarian was above 100 µM throughout. For the same compound, the TGI in the assay with NCI-H23 lung, with MCF7 breast, in the assay on COLO 205 colon, with SK-MEL-5 melanoma, in the assay with HOP-62 NSCLC and with K-562 leukemia was above 100 µM each time. The TGI in the assay on SF-539 CNS, in the assay with HL-60(TB) leukemia, in the assay on UACC-257 melanoma, with SN12C renal, in the assay on M14 melanoma and with SW-620 colon was above 100 µM in each case. Further, the TGI in the assay on HS 578T breast and in the assay on DU-145 prostate was above 100 µM in each case.
In the case of `Cc1ccc2c(c1)C(=O)C(Cc1ccccc1C(=O)O)C2` (stereo not given), the TGI in the assay on HOP-92 NSCLC, in the assay on 786-0 renal, with RXF 393 renal, with LOX IMVI melanoma, with SK-MEL-2 melanoma and with NCI/ADR-RES ovarian was above 100 µM throughout. Further, the TGI in the assay with NCI-H23 lung, in the assay on MCF7 breast, in the assay with COLO 205 colon, with SK-MEL-5 melanoma, with HOP-62 NSCLC and with K-562 leukemia was above 100 µM each time. Also, the TGI in the assay on SF-539 CNS, in the assay with HL-60(TB) leukemia, in the assay with UACC-257 melanoma, with SN12C renal, in the assay with M14 melanoma and with SW-620 colon was above 100 µM throughout. Further, the TGI in the assay with HS 578T breast and in the assay with DU-145 prostate was above 100 µM in each case.
With `COC(=O)C(=O)c1c2ccccc2n2ccc3c4ccccc4[nH]c3c12`, the TGI with HOP-92 NSCLC, in the assay with 786-0 renal, in the assay with RXF 393 renal, in the assay with LOX IMVI melanoma, with SK-MEL-2 melanoma and in the assay with NCI/ADR-RES ovarian was above 10 µM in each case. For the same compound, the TGI in the assay on NCI-H23 lung, in the assay on MCF7 breast, in the assay with COLO 205 colon, with SK-MEL-5 melanoma, with HOP-62 NSCLC and in the assay with K-562 leukemia was above 10 µM in each case. Moreover, the TGI with SF-539 CNS, with HL-60(TB) leukemia, in the assay with UACC-257 melanoma, in the assay on SN12C renal, in the assay on M14 melanoma and in the assay on SW-620 colon was above 10 µM throughout. Further, the TGI with HS 578T breast and with DU-145 prostate was above 10 µM in each case.

These data come from PubChem BioAssay (NCI).
